Assay [1] addresses T1, Peptidyl-prolyl cis-trans isomerase NIMA-interacting 1 (Homo sapiens, UniProt Q13526). The experiment in a line: Inhibition of Gst-tagged human Pin1 assessed as inhibition constant measured after 14 hrs by FP binding assay.
Assay [2] addresses T1, Peptidyl-prolyl cis-trans isomerase NIMA-interacting 1. The experiment in a line: Inhibition of Gst-tagged human Pin1 assessed as inactivation constant measured after 14 hrs by FP binding assay.

T1 sequence (Q13526 whole entry): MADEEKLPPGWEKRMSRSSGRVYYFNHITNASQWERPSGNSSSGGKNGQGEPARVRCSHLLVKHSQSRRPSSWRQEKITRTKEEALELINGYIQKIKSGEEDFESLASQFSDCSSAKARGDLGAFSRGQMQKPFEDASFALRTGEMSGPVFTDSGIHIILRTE

As for `CC(C)(C)CN(C(=O)CCl)C1CCS(=O)(=O)C1` (configuration not stated), the Ki (in general, a dissociation constant, usually derived from enzyme kinetics or from competition with a known ligand) in assay [1] worked out at 700 nM. The Kinact in assay [2] was 0.3 10^-1/min.

The values above are taken from ChEMBL document CHEMBL5325477, “Biological Function of Pin1 in Vivo and Its Inhibitors for Preclinical Study: Early Development, Current Strategies, and Future Directions” (J Med Chem, 2023).
